According to US20250041275A1, “COMPOSITION FOR USE IN THE TREATMENT OF A DISEASE” (RAMBAM MED-TECH LTD., priority 2022, published 2025):

Columns and labels:
[1] = test system: cerulein-induced acute pancreatitis; assay: cerulein-induced acute pancreatitis (AP) in WT and Hpa-Tg mice; format: in vivo; settings: for pancreato-protective effects against AP: early (pre) or post treatment, 10 mg/mouse, FIGS. 3-4; for tolerability: 16 and 32 mg/kg doses; for severity of AP: 16 and 32 mg/kg doses i.p., pre-treatment, FIGS. 5 and 6
Experimental: (§1) Studies utilized wild type (WT) BALB/c mice and heparanase transgenic (Hpa-Tg) mice in which the human heparanase gene is driven by a constitutive β-actin promoter (19) in a BALB/c genetic background. Animals were fed standard mouse chow and tap water ad libitum. All experiments were approved and performed according to the Technion's guidelines of the Committee for the Supervision of Animal Experiments.
Mice were injected with either cerulein (intraperitoneally, […], 5 times at 1 hour apart) (Sigma-Aldrich), or saline (0.9% NaCl) (control group). Additional groups of mice were pretreated with either Aspirin (250 mg/kg, SC) and Trehalose (2000 mg/kg, ip) alone or combined. Additional groups of animals were pre- and post-treated with Aspirlose (10 mg/mouse). […] Finally, the inventors tested the effectivity of “Indose” and “Diclose” at various concentrations against AP. Mice were sacrificed 24 hours later, and serum samples and pancreatic tissue were collected for measurements of blood amylase and lipase levels, pancreatic index (pancreas/body weight ratio), and for histological analysis. Portion of pancreas tissues were also homogenized, and lysate samples were subjected to immunoblotting.
Pancreatic tissue samples were fixed in 10% neutral-buffered formalin progressively dehydrated in graduated alcohol and embedded in paraffin. Five-micron (5 μm) sections were stained with hematoxylin and eosin (H&E).

[2] = test system: ischemia-reperfusion acute kidney injury; assay: ischemia-reperfusion (I/R) acute kidney injury (AKI) model in Hpa-Tg mice; format: in vivo; settings: pretreatment; for expression level of NGAL in kidney / expression level of KIM-1 in kidney: female Hpa-Tg mice; for expression level of NGAL in kidney / NGAL expression in kidney: FIG. 11A; for expression level of KIM-1 in kidney: FIG. 11B; for NGAL expression in kidney: male Hpa-Tg mice; for kidney weight normalized to body weight (KW/BW): Hpa-Tg mice, 48 h after AKI, FIGS. 7A and 8A; for gross morphology and histopathology of kidneys: Indose 16 mg/kg i.p., Diclose 32 mg/kg i.p., male and female Hpa-Tg mice, FIGS. 9 and 10; for increase of blood urea nitrogen (BUN) following AKI / increase of serum creatinine (SCr) following AKI: male Hpa-Tg mice (trend persisted in females), 48 h from AKI induction
Experimental: as §1
(§2) Renal ischemia was induced by clamping the renal artery of both kidneys for 30 min followed by reperfusion (I/R). The inventors tested the effectivity of “Indose” and “Diclose” before induction of ischemia (e.g., “prophylactic effect” or “pre-treatment”) or after (e.g., “treating effect” or “post-treatment”), using the dosing as disclosed hereinabove. Mice were sacrificed 48 hours later, and serum samples and kidney tissue were collected for measurements of blood creatinine and urea nitrogen levels, kidney index (kidney/body weight ratio), and for histological analysis. Portion of kidney tissues were also homogenized, and lysate samples were subjected to mRNA extraction, and expression analysis of neutrophil gelatinase-associated lipocalin (NGAL) and kidney injury molecule-1 (KIM-1).
(§3) The inventors used the ischemia-reperfusion (I/R)-AKI model in mice. The pathogenesis of this disease was evaluated based on kidney edema, blood creatinine (Scr), and blood urea nitrogen (BUN) levels were determined 48 hours following AKI induction. Further, the inventors performed histopathological analysis, as well as expression analysis of the renal injury biomarkers neutrophil gelatinase-associated lipocalin (NGAL), kidney injury molecule-1 (KIM-1).
AKI was induced in the absence or presence of pretreatment with Indose (16 mg/kg, i.p.) or Diclose (32 mg/kg, i.p.), respectively in Hpa-Tg mice (males and females). Untreated Hpa-Tg male and female mice that underwent sham operation served as control group. […] In male mice pretreated with Diclose and Indose, a reduction in NGAL expression was also observed (FIG. 11A). This trend persisted in female mice although the elevation in SCr and BUN following AKI was to a lesser extent.

wild type mice = assay: acute toxicity, intraperitoneal injection in wild type mice; settings: mouse, in vivo, ip; for mortality: 500 mg/kg
Experimental: (§4) Further, the inventors examined the acute toxicity of the compounds Indose and Diclose. A series of dosages: 8 mg/kg, 32 mg/kg, 64 mg/kg, 128 mg/kg, 256 mg/kg, 512 mg/kg, 768 mg/kg, 1024 mg/kg, 1,100 mg/kg, and 1,200 mg/kg were injected by intraperitoneal injection in the presence of sterile water as carrier. Each dosage was injected to a group of 5 wild type mice.

[3] = as above; settings: mouse, in vivo, ip; intraperitoneal injection, sterile water as carrier, groups of 5 wild type mice
Experimental: as §4

[4] = test system: ischemia-reperfusion acute kidney injury; assay: ischemia-reperfusion (I/R) acute kidney injury (AKI) model in WT FVB/N mice; format: in vivo; settings: administered short time after induction of AKI, FIGS. 13A-13C
Experimental: as §2
as §3, with “(KIM-1). […]” for “(KIM-1).”

[5] = test system: cerulein-induced acute pancreatitis; settings: previous studies; cited from earlier work
[6] = WT and Hpa-Tg mice, cerulein treatment, FIG. 1

Compound | pancreato-protective effects against AP [1] | tolerability ([1]; WT and Hpa-Tg mice) | severity of AP ([1]; WT and Hpa-Tg mice) | expression level of NGAL in kidney [2] | expression level of KIM-1 in kidney [2] | NGAL expression in kidney [2] | kidney weight normalized to body weight (KW/BW) [2] | gross morphology and histopathology of kidneys [2] | increase of blood urea nitrogen (BUN) following AKI [2] | increase of serum creatinine (SCr) following AKI [2] | toxicity (overall) (wild type mice) | mortality (wild type mice) | LD50 [3] [mg/kg] | effects on AKI, post-treatment [4] | tissue edema (histopathology of pancreas) ([1]; WT and Hpa-Tg mice exposed to cerulein, FIG. 2) | elevation in biochemical parameters (serum amylase and lipase) [1, 6] | pancreatic edema (pancreatic index, % Pancreatic weight/Body weight) [1, 6] | pancreas edema and inflammation, induction of cytokines and signaling molecules following cerulein administration [5]
CC(=O)Oc1ccccc1C(=O)OCC1O[C@H](O[C@H]2O[C@H](COC(=O)c3ccccc3OC(C)=O)[C@@H](O)[C@H](O)[C@H]2O)[C@H](O)[C@@H](O)[C@@H]1O (some centres unmarked) [Asprilose dimer] | pancreato-protective effects |  |  |  |  |  |  |  |  |  |  |  |  |  |  |  |  | 
CC(=O)Oc1ccccc1C(=O)OC[C@H]1O[C@H](O[C@H]2OC(CO)[C@@H](O)[C@H](O)[C@H]2O)[C@H](O)[C@@H](O)[C@@H]1O (some centres unmarked) [Asprilose mono] | pancreato-protective effects |  |  |  |  |  |  |  |  |  |  |  |  |  |  |  |  | 
O=C(Cc1ccccc1Nc1c(Cl)cccc1Cl)OC[C@H]1O[C@H](O[C@H]2O[C@H](CO)[C@@H](O)[C@H](O)[C@H]2O)[C@H](O)[C@@H](O)[C@@H]1O [Diclose, Trehalose-Dichlorofenac] |  | well tolerated | reduced the severity of AP | effectively reduced | effectively reduced | reduction | significantly reduced | resembled kidneys of the ‘Sham’ control group | remarkably attenuated | remarkably attenuated | low toxicity | No mortality was observed | 780 | curative effects of AKI, with the effects of Diclose being more pronounced |  |  |  | 
Cc1c(CC(=O)OC[C@H]2O[C@H](O[C@H]3O[C@H](CO)[C@@H](O)[C@H](O)[C@H]3O)[C@H](O)[C@@H](O)[C@@H]2O)c2ccccc2n1C(=O)c1ccc(Cl)cc1 [Indose, Trehalose-Indomethacin] |  | well tolerated | reduced the severity of AP | effectively reduced | effectively reduced | reduction | significantly reduced | resembled kidneys of the ‘Sham’ control group | remarkably attenuated | remarkably attenuated | low toxicity | No mortality was observed | 900 | curative effects |  |  |  | 
CC(C)CCC[C@@H](C)[C@H]1CC[C@H]2[C@@H]3CC[C@H]4C[C@@H](O[C@@H]5O[C@H](COS(=O)(=O)O)[C@@H](O[C@H]6O[C@H](COS(=O)(=O)O)[C@@H](O[C@H]7O[C@H](COS(=O)(=O)O)[C@@H](O[C@H]8O[C@H](COS(=O)(=O)O)[C@@H](OS(=O)(=O)O)[C@H](OS(=O)(=O)O)[C@H]8OS(=O)(=O)O)[C@H](OS(=O)(=O)O)[C@H]7OS(=O)(=O)O)[C@H](OS(=O)(=O)O)[C@H]6OS(=O)(=O)O)[C@H](OS(=O)(=O)O)[C@H]5OS(=O)(=O)O)CC[C@]4(C)[C@H]3CC[C@]12C [PG545, reference compound] |  |  |  |  |  |  |  |  |  |  |  |  |  |  | markedly restored | markedly reduced | markedly reduced | attenuated markedly
